Assay type in all cases: physicochemical
Data set [1] is described as follows: Solubility of the dye in n-hexane. As to conditions: for Solubility (% by mass): in n-hexane at 25° C. and 0.1 MPa; for Solubility (in words): n-hexane. On the procedure:
3. Solubility in n-Hexane
The solubility of each of the dyes in n-hexane (solvent) was determined as follows.
Each of the dyes to be measured was dissolved in n-hexane heated at 50° C., thereby preparing a saturated solution. The saturated solution obtained was then left in an environment of 25° C. and 0.1 MPa for 1 hour. The precipitated dye was filtered, and the precipitation amount was measured, from which the solubility (% by mass) of the dye in n-hexane at 25° C. and 0.1 MPa was calculated.

A short description of data set [2]: Measurement of viscosity of dye solutions in n-hexane (R-type viscometer). As to conditions: 20° C.; for Viscosity (5%): 5% by mass solution in n-hexane.
Data set [3] can be described thus: Absorption maximum wavelength and absorption coefficient of colored composition (visible-light spectrophotometer). Further details: Absorption Coefficient (ε): unit not given here. The note with it: n-hexane solution; for Absorption Coefficient (ε): calculated by Lambert-Beer law. As to the method: Each of the dyes shown above as Exemplary Compounds D-2, D-11, D-13, D-14, D-25, D-37, E-2, E-3, and E-7 was dissolved in a solvent (n-hexane) to make a 3% by mass solution, thereby preparing a colored composition (ink). Each of the colored compositions (inks) obtained was evaluated with respect to its color, absorption maximum wavelength (λmax), absorbance (abs), absorption coefficient (∈), viscosity, and relative dielectric constant, and solubility (% by mass) of each of the dyes in a solvent.
2. Absorption Maximum Wavelength, Absorbance, and Absorption Coefficient of Colored Composition
The absorption maximum wavelength (λmax) and the absorbance (abs) of the colored composition were measured using a visible-light spectrophotometer (trade name: UV-1800PC, manufactured by Shimadzu Corporation). The absorption coefficient (∈) was calculated based on the Lambert-Beer law.

Data set [4] in a line: Measurement of relative dielectric constant of the dye (LCR meter, extrapolation). As to conditions: extrapolated from 5, 7.5 and 10% by mass n-hexane solutions, 20° C., 40% RH, 1 kHz. On the procedure:
4. Measurement of Relative Dielectric Constant
Solutions of the dye in n-hexane having concentrations of 5% by mass, 7.5% by mass and 10% by mass, respectively, were prepared, and individually injected into glass cells each having transparent indium-tin-oxide electrodes and a cell gap of 10 μm. The electrical capacities of the resultant cells were measured at 20° C. and 40% RH using a type 2353 LCR meter (manufactured by NF Corporation) at a measurement frequency of 1 kHz. The electrical capacity of n-hexane was also measured as a control sample. The relative dielectric constant of the dye was calculated based on the extrapolation method using the dielectric constants of the above prepared dye solutions calculated from the their electric capacities.

As to `COc1ccc(C2=NOC(=O)C2=Cc2ccc(N(CC(=O)O)CC(=O)O)cc2)cc1` [D-102, reference compound], in data set [1], the “Solubility (% by mass)” value is on record as 0.008 % by mass and the “Solubility (in words)” value is “low solubility”.
Turning to `CCCCCCCCCCCCn1cc(C=C2C(=O)ON=C2c2ccccc2)c2ccccc21` [D-25], in data set [1], the “Solubility (% by mass)” value was 8.0 % by mass. Also, the “Viscosity (5%)” value in data set [2] is recorded as 2.1 mPa · S. In data set [3], the “Absorption Maximum Wavelength λmax” value is recorded as 426 nm and the “Absorption Coefficient (ε)” value was 3.66 × 10^4.
Regarding `CCCCCCCCCCCCN(CCCCCCCCCCCC)c1ccc(C=C2C(=O)ON=C2c2ccccc2)cc1` [D-2], the “Solubility (% by mass)” value in data set [1] is reported as 10.5 % by mass. The “Relative Dielectric Constant” value in data set [4] is given as 8.2. The “Viscosity (5%)” value in data set [2] came out at 2.1 mPa · S. Moreover, the “Viscosity (10%)” value in data set [2] (10% by mass solution in n-hexane) worked out at 3.2 mPa · S. Besides, in data set [3], the “Absorption Maximum Wavelength λmax” value is recorded as 468 nm and the “Absorption Coefficient (ε)” value is recorded as 4.50 × 10^4.
Consider `CCCCOC(=O)CN(CC(=O)OCCCC)c1ccc(C=C2C(=O)ON=C2C(C)(C)C)cc1` [D-11], for which the “Solubility (% by mass)” value in data set [1] worked out at 5.0 % by mass. For the same molecule, the “Viscosity (5%)” value in data set [2] turned out to be 2.1 mPa · S. In data set [3], the “Absorption Maximum Wavelength λmax” value amounted to 459 nm and the “Absorption Coefficient (ε)” value is listed as 3.80 × 10^4.
Turning to `CCCCCCCCCCCCN(CCCCCCCCCCCC)c1ccc(C=CC=C2C(=O)ON=C2C(C)(C)C)c(C)c1` [E-2], in data set [1], the “Solubility (% by mass)” value is on record as 6.5 % by mass. Also, in data set [4], the “Relative Dielectric Constant” value was 9.5. For the same molecule, the “Viscosity (5%)” value in data set [2] turned out to be 2.1 mPa · S. Besides, in data set [3], the “Absorption Maximum Wavelength λmax” value is recorded as 515 nm and the “Absorption Coefficient (ε)” value was 5.10 × 10^4.
For `CCCCCCCCN(CCCCCCCC)c1ccc(C=CC=C2C(=O)ON=C2C(C)(C)C)c(OC)c1` [E-3] the same measures were 7.2 % by mass, 9.0, 2.1 mPa · S, 530 nm and 5.20 × 10^4.
With `CCCCCCN(CCCCCC)c1ccc(C=C2C(=O)ON=C2C(C)(C)C)c(C)c1` [D-37], the “Solubility (% by mass)” value in data set [1] is recorded as 1.2 % by mass. Further, in data set [3], the “Absorption Maximum Wavelength λmax” value amounted to 465 nm and the “Absorption Coefficient (ε)” value is 4.10 × 10^4.
On to `Cc1cc(C=C2C(=O)ON=C2C(C)(C)C)c(C)n1-c1ccc(C(=O)O)cc1` [D-101, reference compound], for which, in data set [1], the “Solubility (% by mass)” value amounted to 0.015 % by mass and the “Solubility (in words)” value was “low solubility”.
Take `CCCCCCCCCCCCN(CCCCCCCCCCCC)c1ccc(C=CC=CC=C2C(=O)ON=C2C)c(C)c1` [E-7]: in data set [1], the “Solubility (% by mass)” value is recorded as 5.0 % by mass. Further, in data set [2], the “Viscosity (5%)” value came out at 2.3 mPa · S. For the same molecule, in data set [3], the “Absorption Maximum Wavelength λmax” value was determined as 556 nm and the “Absorption Coefficient (ε)” value is reported as 5.20 × 10^4.

These data come from patent US9482923B2, “Colored composition and image display structure” (FUJIFILM CORPORATION, priority 2011, dated 2016).
